Experimental data from patent US20040146498A1, “Pharmaceutical combinations” (priority 2001, published 2004).

System: femoral artery thrombosis
Test: Canine femoral artery thrombosis model
Assay type: in vivo
Details: Compound A administered in combination with aspirin (pre-treatment) versus either agent alone; dog; FIG. 1; not statistically significant
Description: Canine Femoral Artery Thrombosis Model—Compound A and Aspirin Compound A as defined above was used in combination with aspirin in a dog model of femoral artery thrombosis to determine whether combination of a P2T-receptor antagonist and pre-treatment with aspirin would have an improved profile when compared to the effect of either agent used alone.

CCCSc1nc(N[C@@H]2C[C@H]2c2ccc(F)c(F)c2)c2nnn([C@@H]3C[C@H](OCCO)[C@@H](O)[C@H]3O)c2n1 [Compound A]
anti-thrombotic potency (dose (ID50) required to produce 50% inhibition of thrombosis): trend for an increased anti-thrombotic potency
